Assay results: US9751885B2, “Cyclopropanamine compound and use thereof” (Takeda Pharmaceutical Company Limited, priority 2012, dated 2017)
Where a name gives a salt, the structure may show the parent alone. Read-outs that look alike come from different tables or passages of the source.

What was measured:
[1] = test system: Gad1 H3K4me2 level in rat primary culture neurons; experiment: Gad1 H3K4 methylation induction activity in rat primary culture neurons (ChIP-qPCR); assay type: cell-based; details: Rattus norvegicus, Neuron, 72 h, control without compound = 100%; for activity at 1 µM: read-out: Gad1 H3K4me2 induction activity (%), compound 1 μM, 3 days, rat primary culture neurons; for activity at 10 µM: read-out: Gad1 H3K4me2 induction activity (%), compound 10 μM, 3 days, rat primary culture neurons
Protocol: Gad1 H3K4 Methylation Induction Activity in Rat Primary Culture Neurons
Thereafter, the compound was added to final concentrations of 1 or 10 μM, and the cells were further cultured for 3 days. The culture supernatant was aspirated, ice-cold PBS was added, and the cell suspension was collected on ice using CELL SCRAPER (IWAKI). […] (750 μL). Furthermore, 0.3% NP40/cell lysis buffer 1 (750 μL) was added, and the cells were lysed by incubating for 5 min on ice.
Using the DNA obtained by the chromatin immunoprecipitation as a template, quantitative PCR of the Gad1 gene upstream genomic region was performed, and the measurement value was taken as the Gad1 H3K4me2 level. […] The Gad1 H3K4me2 induction by the compound was expressed by the H3K4me2 level when the compound was added, as compared to the H3K4me2 level of the control (without addition of the compound) as 100%.

[2] = test system: white blood cell number, red blood cell number, platelet number; experiment: Evaluation of blood cell number in mouse; assay type: in vivo; details: oral, Day 2 after administration
How it was run: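 Male ICR mice dosed orally at 1, 10, 50 or 100 mg/kg (suspension in 0.5% methylcellulose/0.02% citric acid/water); whole blood collected on Day 2. White cell, red cell and platelet counts per unit volume by automated haematology analyser, expressed as % of mean of untreated control group.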

[3] = Evaluation of hippocampal distribution in mouse; assay type: in vivo; details: male ICR mice, 10 mg/kg oral; for concentration at 0.5 h: 0.5 hr after administration; for concentration at 1 h: 1 hr after administration
How it was run: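 Male ICR mice dosed orally at 10 mg/kg as suspension in 0.5% methylcellulose/0.02% citric acid/water. Plasma and hippocampus sampled together at 0.5, 1 or 1.5 h; LC/MS/MS concentrations gave hippocampus/plasma ratio.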

[4] = hippocampus, read-out: hippocampus concentration (mean)
[5] = plasma, read-out: plasma concentration (mean)

In the case of `O=C(NC1CCN(CC(F)(F)F)CC1)c1cccc([C@@H]2C[C@H]2NCC2CC2)c1` (relative stereo) [Example 108, 3-(trans-2-((cyclopropylmethyl)amino)cyclopropyl)-N-(1-(2,2,2-trifluoroethyl)piperidin-4-yl)benzamide dihydrochloride], the activity at 1 µM [1] is reported as 384%, the activity at 10 µM [1] is reported as 268% and the “platelet number, percentage of compound administration group compared to control group, mean” value (“platelet number, percentage” below) ([2]; 10 mg/kg) is reported as 101.9%. For the same compound, the “red blood cell number, percentage of compound administration group compared to control group, mean” value (shortened to “red blood cell number, percentage”) ([2]; 10 mg/kg) was 99.0%, the “white blood cell number, percentage of compound administration group compared to control group, mean” value (shortened to “white blood cell number, percentage”) ([2]; 10 mg/kg) was 127.7% and the “platelet number, percentage” value ([2]; 100 mg/kg) was 94.2%. The “red blood cell number, percentage” value ([2]; 100 mg/kg) was 98.7%, the “white blood cell number, percentage” value ([2]; 100 mg/kg) was 129.4% and the concentration at 0.5 h [3, 4] was 983 ng/g. The concentration at 0.5 h [3, 5] was 684 ng/mL.

With `Cc1nnc(NC(=O)c2cc([C@@H]3C[C@H]3NCC3CC3)ccc2F)s1` (relative stereo) [Example 110, 5-(trans-2-((cyclopropylmethyl)amino)cyclopropyl)-2-fluoro-N-(5-methyl-1,3,4-thiadiazol-2-yl)benzamide dihydrochloride] the activity at 1 µM [1] was 172%, the activity at 10 µM [1] was 208% and the “platelet number, percentage” value ([2]; 10 mg/kg) was 93.4%. For the same compound, the “red blood cell number, percentage” value ([2]; 10 mg/kg) was 98.7%, the “white blood cell number, percentage” value ([2]; 10 mg/kg) was 114.9% and the “platelet number, percentage” value ([2]; 100 mg/kg) was 96.4%. For the same compound, the “red blood cell number, percentage” value ([2]; 100 mg/kg) was 100.4%, the “white blood cell number, percentage” value ([2]; 100 mg/kg) was 112.0% and the concentration at 0.5 h [3, 4] was 3300 ng/g. For the same compound, the concentration at 0.5 h [3, 5] was 4490 ng/mL.

In the case of `Cc1nnc(NC(=O)c2cccc([C@@H]3C[C@H]3NC3CCOCC3)c2)s1` (relative stereo) [Example 165, N-(5-methyl-1,3,4-thiadiazol-2-yl)-3-(trans-2-(tetrahydro-2H-pyran-4-ylamino)cyclopropyl)benzamide fumarate], the activity at 1 µM [1] is reported as 272%, the activity at 10 µM [1] is reported as 373% and the “platelet number, percentage” value ([2]; 10 mg/kg) is reported as 99.3%. The “red blood cell number, percentage” value ([2]; 10 mg/kg) was 100.9%, the “white blood cell number, percentage” value ([2]; 10 mg/kg) was 104.4% and the “platelet number, percentage” value ([2]; 100 mg/kg) was 85.6%. For the same compound, the “red blood cell number, percentage” value ([2]; 100 mg/kg) was 103.2%, the “white blood cell number, percentage” value ([2]; 100 mg/kg) was 87.0% and the concentration at 1 h [3, 4] was 376 ng/g. For the same compound, the concentration at 1 h [3, 5] was 1840 ng/mL.

In the case of `O=C(NC1CCCC1)c1cccc([C@@H]2C[C@H]2NC2CCOCC2)c1` (relative stereo) [Example 168, N-cyclopentyl-3-(trans-2-(tetrahydro-2H-pyran-4-ylamino)cyclopropyl)benzamide hydrochloride], the activity at 1 µM [1] is reported as 227%, the activity at 10 µM [1] is reported as 263% and the “platelet number, percentage” value ([2]; 10 mg/kg) is reported as 106.8%. For the same compound, the “red blood cell number, percentage” value ([2]; 10 mg/kg) was 106.5%, the “white blood cell number, percentage” value ([2]; 10 mg/kg) was 97.6% and the “platelet number, percentage” value ([2]; 100 mg/kg) was 99.0%. The “red blood cell number, percentage” value ([2]; 100 mg/kg) was 101.1%, the “white blood cell number, percentage” value ([2]; 100 mg/kg) was 93.6% and the concentration at 0.5 h [3, 4] was 439 ng/g. The concentration at 0.5 h [3, 5] was 451 ng/mL.

In the case of `Cn1cc(NC(=O)c2cccc([C@@H]3C[C@H]3NC3CCCC3)c2)cn1` (relative stereo) [Example 172, 3-(trans-2-(cyclopentylamino)cyclopropyl)-N-(1-methyl-1H-pyrazol-4-yl)benzamide dihydrochloride], the activity at 1 µM [1] is reported as 145%, the activity at 10 µM [1] is reported as 204% and the “platelet number, percentage” value ([2]; 10 mg/kg) is reported as 97.0%. For the same compound, the “red blood cell number, percentage” value ([2]; 10 mg/kg) was 99.0%, the “white blood cell number, percentage” value ([2]; 10 mg/kg) was 101.3% and the “platelet number, percentage” value ([2]; 100 mg/kg) was 99.6%. The “red blood cell number, percentage” value ([2]; 100 mg/kg) was 97.7%, the “white blood cell number, percentage” value ([2]; 100 mg/kg) was 130.0% and the concentration at 1 h [3, 4] was 419 ng/g. For the same compound, the concentration at 1 h [3, 5] was 556 ng/mL.

In the case of `Cc1nnc(NC(=O)c2cccc([C@@H]3C[C@H]3NC3CCN(C4CC4)CC3)c2)s1` (relative stereo) [Example 176, 3-(trans-2-((1-cyclopropylpiperidin-4-yl)amino)cyclopropyl)-N-(5-methyl-1,3,4-thiadiazol-2-yl)benzamide fumarate], the activity at 1 µM [1] is reported as 139%, the activity at 10 µM [1] is reported as 116% and the “platelet number, percentage” value ([2]; 10 mg/kg) is reported as 96.7%. The “red blood cell number, percentage” value ([2]; 10 mg/kg) was 97.5%, the “white blood cell number, percentage” value ([2]; 10 mg/kg) was 106.6% and the “platelet number, percentage” value ([2]; 100 mg/kg) was 90.2%. The “red blood cell number, percentage” value ([2]; 100 mg/kg) was 100.8%, the “white blood cell number, percentage” value ([2]; 100 mg/kg) was 107.8% and the concentration at 1 h [3, 4] was 642 ng/g. For the same compound, the concentration at 1 h [3, 5] was 515 ng/mL.

With `O=C(NC1CCC(F)(F)CC1)c1cccc([C@@H]2C[C@H]2NC2CCOCC2)c1` (relative stereo) [Example 177, N-(4,4-difluorocyclohexyl)-3-(trans-2-(tetrahydro-2H-pyran-4-ylamino)cyclopropyl)benzamide hydrochloride] the activity at 1 µM [1] was 340%, the activity at 10 µM [1] was 200% and the “platelet number, percentage” value ([2]; 10 mg/kg) was 101.3%. The “red blood cell number, percentage” value ([2]; 10 mg/kg) was 94.5%, the “white blood cell number, percentage” value ([2]; 10 mg/kg) was 136.9% and the “platelet number, percentage” value ([2]; 100 mg/kg) was 97.4%. The “red blood cell number, percentage” value ([2]; 100 mg/kg) was 99.0%, the “white blood cell number, percentage” value ([2]; 100 mg/kg) was 97.1% and the concentration at 1 h [3, 4] was 324 ng/g. It also gave a concentration at 1 h [3, 5] of 630 ng/mL.

In the case of `O=C(NC1CCOCC1)c1cccc([C@@H]2C[C@H]2NC2CCC2)c1` (relative stereo) [Example 179, 3-(trans-2-(cyclobutylamino)cyclopropyl)-N-(tetrahydro-2H-pyran-4-yl)benzamide hydrochloride], the activity at 1 µM [1] is reported as 175%, the activity at 10 µM [1] is reported as 123% and the “platelet number, percentage” value ([2]; 10 mg/kg) is reported as 94.8%. For the same compound, the “red blood cell number, percentage” value ([2]; 10 mg/kg) was 102.5%, the “white blood cell number, percentage” value ([2]; 10 mg/kg) was 94.2% and the “platelet number, percentage” value ([2]; 100 mg/kg) was 92.5%. The “red blood cell number, percentage” value ([2]; 100 mg/kg) was 100.4%, the “white blood cell number, percentage” value ([2]; 100 mg/kg) was 121.2% and the concentration at 0.5 h [3, 4] was 321 ng/g. The concentration at 0.5 h [3, 5] was 421 ng/mL.

For `Cn1cc(NC(=O)c2cc([C@@H]3C[C@H]3NC3CCC(F)(F)CC3)ccc2F)cn1` (relative stereo) [Example 186, 5-(trans-2-((4,4-difluorocyclohexyl)amino)cyclopropyl)-2-fluoro-N-(1-methyl-1H-pyrazol-4-yl)benzamide hydrochloride], the activity at 1 µM [1] was 239%, the activity at 10 µM [1] was 191% and the “platelet number, percentage” value ([2]; 10 mg/kg) was 93.1%. The “red blood cell number, percentage” value ([2]; 10 mg/kg) was 101.5%, the “white blood cell number, percentage” value ([2]; 10 mg/kg) was 129.3% and the “platelet number, percentage” value ([2]; 100 mg/kg) was 88.2%. The “red blood cell number, percentage” value ([2]; 100 mg/kg) was 99.2%, the “white blood cell number, percentage” value ([2]; 100 mg/kg) was 111.2% and the concentration at 0.5 h [3, 4] was 3120 ng/g. The concentration at 0.5 h [3, 5] was 1320 ng/mL.
